Measured values reported in US4783462A, “3(2H)pyridazinone, and anti-allergic agent containing it” (Nissan Chemical Industries Ltd., priority 1985, dated 1988).

Legend:
[1] = system: LTC4; experiment: Antagonism in isolated guinea-pig trachea, Test method (i) (Table 3, given as LTC4 antagonism); format: cell-based; settings: Cavia porcellus, 5 min, test compound 10^-5 g/ml, given as LTC4 antagonisms
Description: (i) LTC4 and LTD4 antagonisms in guinea-pig trachea
Antagonisms for LTC4 and LTD4 were determined in isolated guinea-pig trachea prepared as spiral strip. Tracheal preparations were suspended under 1 g tension in 10 ml organ baths and they were incubated for 1 hr prior to use. Contractile responses to LTC4 (2×10^-8 g/ml) and LTD4 (2×10^-8 g/ml) were obtained after the maximal response to histamine (10^-4 M). Test compounds dissolved in 100% dimethyl sulfoxide were added to the organ baths (final concentration of 10^-5 g/ml or 10^-6 g/ml) 5 min prior to LTC4 and LTD4 addition, and then contractile responses to LTC4 and LTD4 were compared with those of control which was obtained from a paired trachea in the absence of test compounds. LTC4 - and LTD4 -induced contractions were expressed as a percentage of the maximal response to histamine. The antagonism was determined as follows:
(§1) Antagonism (%)=(1.0-% contraction in test/% contraction in […]

[2] = system: ddY strain male mice; experiment: Acute toxicity test, Test method-(2), intraperitoneal; format: in vivo; settings: 7 days
Description: The lethal ratio was determined in ddY strain male mice (4 weeks old) at 7 days after the intraperitoneal injection of test compounds.

[3] = system: LTD4; experiment: LTD4 antagonism in isolated guinea-pig trachea with indomethacin, Test method (ii) (Table 4); format: cell-based; settings: Cavia porcellus, 0.5 h, LTD4 2×10^-8 g/ml, test compound 10^-6 g/ml, 30 min prior, 5 μmol indomethacin
Description: (ii) LTD4 antagonism in guinea-pig trachea
Antagonism for LTD4 was determined in isolated guinea-pig trachea prepared as spiral strip. Tracheal preparations were suspended under 1 g tension in 10 ml organ baths containing 5 μmol of indomethacin and they were incuated for 1 hr prior to use. Contractile responses to LTD4 (2×10^-8 g/ml) were obtained after the maximal response to histamine (10^-4 M). Test compounds dissolved in 100% dimethyl sulfoxide were added to the organ baths (final concentration of 10^-6 g/ml) 30 min prior to LTD4 addition, and then contractile responses to LTD4 were compared with those of control which was obtained from a paired trachea in the absence of test compounds. LTD4 -induced contractions were expressed as a percentage of the maximal response to histamine. The antagonism was determined as follows:
as §1

Row | SMILES | inhibition at 10 µg/mL [1] [%] | also measured
1 | CCCc1cc(C#N)ccc1OCCCNc1cnn(C(C)(C)C)c(=O)c1Cl [Compound No. 1, 4-Chloro-5-[3-(2-n-propyl-4-cyanophenoxy)propylamino]-2-t-butyl-3(2H)pyridazinone] | 49 | Lethal ratio (Death number/Experimental number) ([2]; 200 mg/kg intraperitoneal): 0/2; Lethal ratio (Death number/Experimental number) ([2]; 400 mg/kg intraperitoneal): 0/1
2 | CCOC(=O)c1ccc(OCCCNc2cnn(CC)c(=O)c2Cl)c(Cl)c1 [Compound No. 10] | 46 | Lethal ratio (Death number/Experimental number) ([2]; 200 mg/kg intraperitoneal): 0/2; Lethal ratio (Death number/Experimental number) ([2]; 400 mg/kg intraperitoneal): 0/1
3 | COc1cccc(SCCCNc2cnn(C(C)(C)C)c(=O)c2Cl)c1 [Compound No. 14] | 40 | Lethal ratio (Death number/Experimental number) ([2]; 200 mg/kg intraperitoneal): 0/2; Lethal ratio (Death number/Experimental number) ([2]; 400 mg/kg intraperitoneal): 0/1
4 | CCCc1cc(C(N)=O)ccc1OCCCNc1cnn(C(C)C)c(=O)c1Br [Compound No. 122] | – | inhibition at 1 µg/mL [3]: 94%
5 | CCCCc1cc(C(=O)OC)ccc1OCCCNc1cnn(C(C)C)c(=O)c1Br [Compound No. 126] | – | inhibition at 1 µg/mL [3]: 90%
6 | CCCc1cc(C#N)ccc1OCC(O)CNc1cnn(C(C)C)c(=O)c1Cl (centres unmarked) [Compound No. 145, 4-chloro-5-[3-(2-n-propyl-4-cyanophenoxy)-2-hydroxypropylamino]-2-i-propyl-3(2H)pyridazinone] | 85 | Lethal ratio (Death number/Experimental number) ([2]; 200 mg/kg intraperitoneal): 0/2; Lethal ratio (Death number/Experimental number) ([2]; 400 mg/kg intraperitoneal): 0/1
7 | CCCCc1cc(C(N)=O)ccc1OCCCNc1cnn(CC)c(=O)c1Br [Compound No. 180, 4-bromo-5-[3-(2-n-butyl-4-carbamoylphenoxy)propylamino]-2-ethyl-3(2H) pyridazinone] | – | inhibition at 1 µg/mL [3]: 88%
8 | CCCCc1cc(C#N)ccc1OCCCNc1cnn(CC)c(=O)c1Br [Compound No. 181, 4-Bromo-5-[3-(2-n-butyl-4-cyanophenoxy)propylamino]-2-ethyl-3(2H)pyridazinone] | – | inhibition at 1 µg/mL [3]: 70%
9 | CCn1ncc(NCCCOc2ccc(C(=O)OC)cc2Cl)c(Cl)c1=O [compound 13] | 53 | Lethal ratio (Death number/Experimental number) ([2]; 200 mg/kg intraperitoneal): 0/2; Lethal ratio (Death number/Experimental number) ([2]; 400 mg/kg intraperitoneal): 0/1
10 | CCCc1c(OCCCOc2cnn(CC)c(=O)c2Cl)ccc2c(=O)cc(C(=O)O)oc12 [compound 29] | 18 | Lethal ratio (Death number/Experimental number) ([2]; 200 mg/kg intraperitoneal): 0/2; Lethal ratio (Death number/Experimental number) ([2]; 400 mg/kg intraperitoneal): 0/1
11 | COc1cccc(OCCCOc2cnn(C(C)C)c(=O)c2Cl)c1 [compound 35] | 72 | Lethal ratio (Death number/Experimental number) ([2]; 200 mg/kg intraperitoneal): 0/2; Lethal ratio (Death number/Experimental number) ([2]; 400 mg/kg intraperitoneal): 0/1
12 | COc1cccc(OCCOc2cnn(C(C)C)c(=O)c2Cl)c1 [compound 45] | 27 | Lethal ratio (Death number/Experimental number) ([2]; 200 mg/kg intraperitoneal): 0/2; Lethal ratio (Death number/Experimental number) ([2]; 400 mg/kg intraperitoneal): 0/1
13 | CCCc1cc(C(=O)O)ccc1OCCCOc1cnn(C(C)C)c(=O)c1Cl [compound 86] | 59 | –
14 | CCCc1cc(C#N)ccc1OCCCOc1cnn(C(C)C)c(=O)c1Cl [compound 87] | 60 | –
15 | COC(=O)c1ccc(OCCCNc2cnn(C(C)C)c(=O)c2Cl)c(C(C)C)c1 [compound 88] | 97 | –
16 | CC(C)c1cc(C(=O)O)ccc1OCCCNc1cnn(C(C)C)c(=O)c1Cl [compound 89] | 52 | –
17 | CCOc1cc(C(=O)OC)ccc1OCCCNc1cnn(C(C)C)c(=O)c1Cl [compound 90] | 83 | –
18 | CCOc1cc(C(=O)O)ccc1OCCCNc1cnn(C(C)C)c(=O)c1Cl [compound 91] | 14 | –
19 | CCc1cc(C=CC(=O)O)ccc1OCCCNc1cnn(C(C)C)c(=O)c1Cl [compound 95] | 59 | –
20 | CCc1cc(C(=O)OC)ccc1OCCCNc1cnn(CC)c(=O)c1Cl [compound 96] | 77 | –
21 | CCc1cc(C(=O)O)ccc1OCCCNc1cnn(C(C)C)c(=O)c1Cl [compound 97] | 62 | –

Row | SMILES | inhibition at 10 µg/mL [1] [%] | also measured
22 | CCn1ncc(NCCCOc2ccc(C)cc2OC)c(Cl)c1=O [compound 99] | 51 | –
23 | COc1cc(C)ccc1OCCCNc1cnn(C(C)C)c(=O)c1Cl [compound 100] | 66 | –
24 | CCn1ncc(NCCCOc2ccc(C(=O)O)cc2C(C)C)c(Cl)c1=O [compound 104] | 57 | –
25 | CCc1cc(OC)ccc1OCCCNc1cnn(CC)c(=O)c1Cl [compound 106] | 93 | –
26 | CCc1cc(OC)ccc1OCCCNc1cnn(C(C)C)c(=O)c1Cl [compound 107] | 85 | –
27 | CCCCc1cc(C(=O)OC)ccc1OCCCNc1cnn(C(C)C)c(=O)c1Cl [compound 110] | 77 | –
28 | CCCc1cc(C(=O)O)ccc1OCCCNc1cnn(CC)c(=O)c1Br [compound 119] | 100 | –
29 | CCCc1cc(C(=O)OC)ccc1OCCCNc1cnn(C(C)C)c(=O)c1Br [compound 124] | – | inhibition at 1 µg/mL [3]: 92%
30 | CCCc1cc(C(=O)O)ccc1OCCCNc1cnn(C(C)C)c(=O)c1Br [compound 125] | – | inhibition at 1 µg/mL [3]: 84%
31 | CCCc1cc(OC)ccc1OCCCNc1cnn(CC)c(=O)c1Br [compound 135] | – | inhibition at 1 µg/mL [3]: 57%
32 | CCc1cc(OC)ccc1OCCCNc1cnn(CC)c(=O)c1Br [compound 137] | – | inhibition at 1 µg/mL [3]: 53%
33 | COc1cccc(OCC(O)COc2cnn(C(C)C)c(=O)c2Cl)c1 (centres unmarked) [compound 140] | 41 | –
34 | CCOc1ccccc1OCC(O)COc1cnn(C(C)C)c(=O)c1Cl (centres unmarked) [compound 141] | 54 | –
35 | CC(C)c1ccccc1OCC(O)COc1cnn(C(C)C)c(=O)c1Cl (centres unmarked) [compound 142] | 69 | Lethal ratio (Death number/Experimental number) ([2]; 200 mg/kg intraperitoneal): 0/2; Lethal ratio (Death number/Experimental number) ([2]; 400 mg/kg intraperitoneal): 0/1
36 | CCCc1ccccc1OCC(O)CNc1cnn(C(C)C)c(=O)c1Cl (centres unmarked) [compound 144] | 84 | –
37 | CCCc1cc(C(=O)O)ccc1OCC(O)CNc1cnn(C(C)C)c(=O)c1Cl (centres unmarked) [compound 146] | 14 | –
38 | CCCc1cc(C(=O)OC)ccc1OCC(O)CNc1cnn(C(C)C)c(=O)c1Cl (centres unmarked) [compound 147] | 66 | –
39 | CCCc1cc(C(N)=O)ccc1OCC(O)CNc1cnn(C(C)C)c(=O)c1Cl (centres unmarked) [compound 148] | 17 | –
40 | CCCc1cc(C#N)ccc1OCC(=O)CNc1cnn(C(C)C)c(=O)c1Cl [compound 149] | 81 | –
41 | CCn1ncc(NCC(O)COS(=O)(=O)c2ccc(C)cc2)c(Cl)c1=O (centres unmarked) [compound 150] | 16 | –
42 | CC(C)n1ncc(NCC(O)COc2ccccc2Cl)c(Cl)c1=O (centres unmarked) [compound 151] | 47 | –

Row | SMILES | inhibition at 10 µg/mL [1] [%] | also measured
43 | CCCc1cc(OC)ccc1OCC(O)CNc1cnn(CC)c(=O)c1Cl (centres unmarked) [compound 152] | 60 | –
44 | CCCc1cc(C(=O)OC)ccc1SCC(=O)CNc1cnn(C(C)C)c(=O)c1Cl [compound 156] | 56 | –
45 | CCn1ncc(NCC(O)COc2ccccc2Cl)c(Cl)c1=O (centres unmarked) [compound 159] | 44 | –
46 | CCCc1cc(OC)ccc1OCC(O)CNc1cnn(C(C)C)c(=O)c1Cl (centres unmarked) [compound 160] | 70 | –
47 | CCCc1cc(C(=O)O)ccc1OCC(CN(C)c1cnn(C(C)C)c(=O)c1Cl)OC (centres unmarked) [compound 165] | 33 | –
48 | COC(COc1ccc(C(=O)C(C)CC(=O)O)cc1)CN(C)c1cnn(C(C)C)c(=O)c1Cl (centres unmarked) [compound 168] | 21 | –
49 | CC(C)c1ccccc1OCC(O)COc1cnn(C(C)C)c(=O)c1 (centres unmarked) [compound 169] | 50 | –
50 | COc1ccc(NCC(O)COc2cnn(C(C)C)c(=O)c2Cl)cc1OC (centres unmarked) [compound 170] | 17 | –
51 | CCCc1cc(C#N)ccc1OCC(=O)COc1cnn(C(C)C)c(=O)c1Cl [compound 173] | 35 | –
52 | CCCc1cc(C(=O)OC)ccc1OCC(O)COc1cnn(C(C)C)c(=O)c1Cl (centres unmarked) [compound 174] | 78 | –
53 | CCCc1cc(C(=O)OC)ccc1OCC(COc1cnn(C(C)C)c(=O)c1Cl)OC (centres unmarked) [compound 175] | 55 | –
54 | CCCCc1cc(C(=O)OC)ccc1OCCCNc1cnn(CC)c(=O)c1Br [compound 178] | – | inhibition at 1 µg/mL [3]: 69%
55 | CCCCc1cc(C(=O)O)ccc1OCCCNc1cnn(CC)c(=O)c1Br [compound 179] | – | inhibition at 1 µg/mL [3]: 63%
56 | CCCc1cc(O)ccc1OCCCNc1cnn(CC)c(=O)c1Br [compound 197] | – | inhibition at 1 µg/mL [3]: 82%
57 | CCCc1cc(O)ccc1OCCCNc1cnn(C(C)C)c(=O)c1Br [compound 198] | – | inhibition at 1 µg/mL [3]: 86%
58 | CCc1cc(C=O)ccc1OCCCNc1cnn(CC)c(=O)c1Br [compound 199] | – | inhibition at 1 µg/mL [3]: 65%
59 | CCc1cc(C=O)ccc1OCCCNc1cnn(C(C)C)c(=O)c1Br [compound 200] | – | inhibition at 1 µg/mL [3]: 81%
60 | CCCCCc1cc(C(=O)O)ccc1OCCCNc1cnn(CC)c(=O)c1Cl [compound 202] | – | inhibition at 1 µg/mL [3]: 89%
61 | CCCCCc1cc(C(N)=O)ccc1OCCCNc1cnn(CC)c(=O)c1Cl [compound 203] | – | inhibition at 1 µg/mL [3]: 94%
62 | CCCCCc1cc(C(=O)OC)ccc1OCCCNc1cnn(CC)c(=O)c1Br [compound 204] | – | inhibition at 1 µg/mL [3]: 95%
